In PMC8308780, “Antiviral Activity of Isoquinolone Derivatives against Influenza Viruses and Their Cytotoxicity” (Pharmaceuticals, 2021):
pEC50: −log10 of the molar value. Where a name gives a salt, the structure may show the parent alone. Read-outs that look alike come from different tables or passages of the source.

Tests used:
B/Lee/40 (Lee) = assay: microbe, parasite or virus in culture; assay type: cell-based, influenza B virus; settings: unidentified influenza virus, MDCK, read-out: EC50 against Influenza Virus Lee
[1] = tested on: A/Hong Kong/8/68 (H3N2; HK); assay: microbe, parasite or virus in culture; assay type: cell-based; settings: Influenza A virus, read-out: EC50 against Influenza Virus HK
[2] = tested on: A/Puerto Rico/8/34 (H1N1; PR8); assay: microbe, parasite or virus in culture; assay type: cell-based; settings: Influenza A virus, read-out: EC50 against Influenza Virus PR8
in vitro [3] = settings: dog
[4] = tested on: influenza A and B viruses (PR8, HK, Lee); assay: Cytopathic effect assay, values given across the viral strains tested; assay type: cell-based; settings: Influenza A virus
MDCK cells [5] = assay: Fluorescein diacetate-based cell viability assay, mock-infected cells (cytotoxicity)
NA = NA (Influenza A virus, UniProt P03468); assay: NA activity assay (NA-XTD kit) with purified PR8 virus; assay type: biochemical, influenza A virus PR8; settings: maximum concentration of 30 µM
Description: An NA activity assay was performed by using the NA-XTD Influenza Neuraminidase assay kit (Applied Biosystems, Foster City, CA, USA) [25, 26]. The influenza A virus PR8 (2.8 × 10^3 PFU) was mixed with the same volume of compounds at 37 °C for 20 min. After an addition of NA-XTD substrate, the mixture was incubated at room temperature for 30 min. The luminescent signal was maximized by the addition of an NA-XTD accelerator according to the manufacturer’s instructions and read using a microplate luminometer (Centro LB960 system; Berthold Technologies, Bad Wildbad, Germany). Half maximum inhibitory concentrations (IC50s) were determined using GraphPad Prism 8.4.2.

PR8 virus [6] = assay type: cell-based, influenza A virus
[7] = target: influenza A viral polymerase (Influenza A virus, UniProt P03428+P03431+P03433); assay type: cell-based
PR8 virus [8] = assay: microbe, parasite or virus in culture; assay type: cell-based, influenza A virus; settings: for antiviral activity on exposure during viral adsorption: 0–1 h at 4 °C, compound 1 10 µM, EGCG 1 µM
PR8 virus [9] = settings: MDCK cells, subtoxic concentrations, 1 day
in vitro [10] = settings: dog; remark: listed apart in the source
PR8 virus [11] = settings: 3 or 30 µM, 5 h post-infection
Description: For fluorescence microscopy, PR8 virus-infected MDCK cells (MOI, 3) seeded onto 4-well slides (8.5 × 10^4 cells per well) were treated with DMSO (delivery vehicle), compound 1, or RBV at 33 °C for 5 h. After fixing and permeabilization, viral NP was visualized using an anti-NP antibody (Santa Cruz Biotechnology, Santa Cruz, CA, USA), followed by an Alexa 488-conjugated goat anti-mouse IgG (Invitrogen) [10]. Cells were counterstained with a Vectashield mounting medium containing DAPI (Vector Laboratories, Burlingame, CA, USA). Images were captured under a Zeiss LSM 700 confocal microscope (Carl Zeiss, Thornwood, NY, USA).

MDCK cells [12] = settings: 2-day treatment, concentrations above 0.41 µM
[13] = A/Hong Kong/8/68 (H3N2), MDCK cells
[14] = A/Puerto Rico/8/34 (H1N1), MDCK cells
[15] = PR8, HK and Lee strains, MDCK cells, read-out: EC50 values, range across influenza A and B viruses

NA, sequence (P03468 whole entry): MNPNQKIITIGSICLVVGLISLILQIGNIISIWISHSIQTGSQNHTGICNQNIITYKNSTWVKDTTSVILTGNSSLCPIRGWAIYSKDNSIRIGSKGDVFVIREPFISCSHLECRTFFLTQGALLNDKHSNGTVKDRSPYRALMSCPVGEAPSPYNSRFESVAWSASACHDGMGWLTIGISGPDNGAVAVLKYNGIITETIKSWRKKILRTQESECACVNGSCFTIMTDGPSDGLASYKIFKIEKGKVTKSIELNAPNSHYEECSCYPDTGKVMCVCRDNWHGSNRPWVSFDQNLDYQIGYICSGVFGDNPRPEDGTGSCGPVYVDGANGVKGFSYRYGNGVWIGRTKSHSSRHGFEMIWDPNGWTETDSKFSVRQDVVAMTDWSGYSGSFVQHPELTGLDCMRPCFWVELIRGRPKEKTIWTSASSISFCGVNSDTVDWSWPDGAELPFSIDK

| Compound | pEC50 (B/Lee/40 (Lee)) | pEC50 [1, 13] | pEC50 [2, 14] | CC50 at 3 days (in vitro [3]) [µM] | other results |
| --- | --- | --- | --- | --- | --- |
| Cn1c(-c2ccccc2O)c(C=O)c2ccccc2c1=O [Compound 16] | < 3.83 | < 3.83 | < 3.83 | 148 | – |
| O=c1[nH]c(-c2ccccc2O)cc2ccccc12 [Compound 3] | 4.19 | 3.99 | 4.24 | > 300 | – |
| CCc1cc2c(cc1-c1cc3ccc(OC)c(O)c3c(=O)n1C)OCO2 [Compound 17] | < 3.96 | 5.24 | 4.43 | 109 | pEC50 ([4]; influenza A strains only (PR8, HK), read-out: EC50 values, range against influenza A viral strains): 4.43 to 5.24 |
| CN(C)c1cccc2c(=O)[nH]c(-c3ccc(Cl)cc3)cc12 [Compound 8] | < 3.52 | < 3.52 | < 3.52 | > 300 | – |
| COc1cc2cc(-c3ccccc3O)[nH]c(=O)c2cc1OC [Compound 22] | < 3.52 | < 3.52 | < 3.52 | > 300 | – |
| COc1ccc2cc(-c3cc4c(cc3CCO)OCO4)[nH]c(=O)c2c1OC [Compound 20] | 4.81 | 4.92 | 4.53 | > 300 | cell death (MDCK cells [5]; 300 µM): approximately 30% |
| COc1ccc2cc(-c3cc4c(cc3CCO)OCO4)n(C)c(=O)c2c1OC [Compound 19] | 4.65 | 4.34 | 4.22 | > 300 | pEC50 [4, 15]: 4.22 to 4.65 |
| COc1ccc(-c2[nH]c(=O)c3ccc(C)cc3c2Br)cc1OC [Compound 13] | < 3.52 | 3.76 | 3.75 | > 300 | – |
| NC(=O)c1ncn([C@@H]2O[C@H](CO)[C@@H](O)[C@H]2O)n1 [RBV, ribavirin, reference compound] | 4.32 | – | – | – | pEC50 ([1]; H3N2, MDCK): 4.36; pEC50 ([2]; MDCK): 4.60; CC50 at 3 days (in vitro [3]; mock-infected MDCK cells): > 300 µM |
| C=Cc1cc2c(cc1-c1cc3ccc(OC)c(OC)c3c(=O)n1C)OCO2 [Compound 18] | 5.96 | 5.85 | 5.55 | 40.3 | – |
| Cc1cccc(-c2cc3c(N(C)C)cccc3c(=O)[nH]2)c1 [Compound 6] | 4.23 | < 3.52 | < 3.52 | > 300 | – |
| Cc1ccc(-c2cc3c(N(C)C)cccc3c(=O)[nH]2)cc1 [Compound 7] | < 3.52 | < 3.52 | < 3.52 | > 300 | – |
| O=c1[nH]c(-c2ccccc2)cc2ccccc12 [Compound 2, 3-phenylisoquinolone] | 4.06 | 4.13 | 4.35 | > 300 | – |
| CN(C)c1cccc2c(=O)[nH]c(-c3ccc(Br)cc3)cc12 [Compound 9] | < 3.52 | < 3.52 | < 3.52 | > 300 | – |
| NC12CC3CC(CC(C3)C1)C2 [AMT, amantadine hydrochloride, reference compound] | < 3.52 | 5.80 | < 3.52 | – | CC50 at 3 days (in vitro [3]; mock-infected MDCK cells): > 300 µM |
| COc1ccccc1-c1cc2ccccc2c(=O)[nH]1 [Compound 5] | 5.85 | < 3.92 | < 3.92 | 120 | – |
| Cc1ccc2c(=O)[nH]c(-c3c(C)cccc3C)c(Br)c2c1 [Compound 14] | < 3.52 | < 3.52 | < 3.52 | > 300 | – |
| Cn1c(-c2ccccc2C=O)cc2ccccc2c1=O [Compound 15] | < 3.52 | < 3.52 | < 3.52 | > 300 | – |
| Cc1ccc2c(=O)[nH]c(-c3c(C)cccc3C)cc2c1 [Compound 12] | < 3.52 | < 3.52 | < 3.52 | > 300 | – |
| O=c1[nH]c(-c2ccccc2CO)cc2ccccc12 [Compound 4] | 4.76 | 4.09 | 4.28 | > 300 | – |
| COc1ccc(-c2cc3cc(C)ccc3c(=O)[nH]2)cc1OC [Compound 11] | 4.13 | 4.02 | 4.49 | > 300 | – |
| CCC(CC)O[C@@H]1C=C(C(=O)O)C[C@H](N)[C@H]1NC(C)=O [OSV-C, oseltamivir carboxylate, reference compound] | 6.43 | 7.52 | 7.30 | > 300 | – |
| COc1cc2cc(-c3ccccc3)[nH]c(=O)c2cc1OC [Compound 21, 6,7-dimethoxy-3-phenylisoquinolone] | 5.00 | 4.96 | 4.73 | > 300 | pEC50 [4, 15]: 4.73 to 5.00; inhibitory effect on NA activity (NA): no inhibitory effect; progeny virus production (plaque assay) (PR8 virus [6]): inhibited progeny virus production into MDCK culture supernatants in a dose-dependent manner; viral polymerase activity [7]: efficiently suppressed viral polymerase activity |
| (-)-epigallocatechin-3-gallate [EGCG, reference compound] | – | – | – | – | antiviral activity on exposure during viral adsorption (PR8 virus [8]): blocked PR8 infection completely |
| CCc1cc2c(cc1-c1cc3ccc(OC)c(OC)c3c(=O)n1C)OCO2 [Compound 1, 3-(6-ethylbenzo[d][1,3]dioxol-5-yl)-7,8-dimethoxy-2-methylisoquinolin-1(2H)] | 6.22 | 6.52 | 6.70 | 39 | pEC50 [4, 15]: 6.22 to 6.70; viral protein expression (Western blot) (PR8 virus [9]): reducing the expression of viral proteins, including NP and HA; viability at 1 day, 11.11 µM (in vitro [10]): 80%; NP-positive cells (confocal microscopy) (PR8 virus [11]): few or no NP-positive cells; cell death (MTT) (MDCK cells [12]): > 40%; antiviral activity on exposure during viral adsorption (PR8 virus [8]): failed to induce antiviral activity; inhibition at 10 µM (PR8 virus [8]; Influenza A virus, PR8, 7 h, read-out: inhibition of plaque formation): > 80%; progeny virus production (plaque assay) (PR8 virus [6]): reducing the number of viral progeny released into the culture supernatant; cell death (MDCK cells [5]; incubation for 2 days, concentrations > 0.41 µM, fluorescein diacetate): > 40%; viral polymerase activity [7]: suppressed viral RNA replication/transcription |
| COc1cc2cc(-c3cccc(C)c3)[nH]c(=O)c2cc1OC [Compound 23] | < 3.52 | < 3.52 | < 3.52 | > 300 | – |
